The values that follow come from patent US20040044008A1, “Use of therapeutic benzamide derivatives” (priority 2000, published 2004).

As usually defined, the IC50 is the concentration that inhibits the measured activity by half. Low readings indicate greater potency in that assay, high ones weaker potency in that assay.

This assay has as its target human MTP (Homo sapiens, UniProt P55157). The assay is described as follows: human MTP activity assay (SPA, 3H-triolein transfer between liposomes). The class given is biochemical. The following applies: human MTP-mediated 3H-triolein transfer from donor to acceptor liposomes, 25 min incubation at 37° C., streptavidin-SPA beads. An excerpt:
Such derivatives are clear to those skilled in the art, without undue experimentation, and with reference to the teaching of Burger's Medicinal Chemistry And Drug Discovery, 5th Edition, Vol 1: Principles And Practice, which is incorporated herein by reference. […] MTP inhibitors may be used in the treatment of non-insulin dependent diabetes mellitus, insulin resistance, coronary heart disease, prevention of stroke, pancreatitis, hypercholesterolemia, hypertriglyceridemia, hyperlipemia, mixed dyslipidemia, post-prandial hyperlipemia, atherosclerosis and obesity. The ability of the compounds of this invention to inhibit human MTP activity is measured by an in vitro assay where MTP transfers 3H-triolein between phosphatidylcholine liposomes. The specificity of the compounds of the invention is established by comparing the effects on apoB-100 and apoprotein A-1 production. A specificity of at least 100 is preferred.
The human MTP activity assay was established using SPA technology. Donor liposomes were prepared with 3H-triolein and phosphatidylcholine, while acceptor liposomes contained biotinylated phosphatidylethanolamine and phosphatidylcholine. The MTP-mediated 3H-triolein transfer onto acceptor liposomes was allowed by a 25 min incubation at 37° C., and quantified by the addition of streptavidin-SPA beads.

Sequence of human MTP (P55157 19-894): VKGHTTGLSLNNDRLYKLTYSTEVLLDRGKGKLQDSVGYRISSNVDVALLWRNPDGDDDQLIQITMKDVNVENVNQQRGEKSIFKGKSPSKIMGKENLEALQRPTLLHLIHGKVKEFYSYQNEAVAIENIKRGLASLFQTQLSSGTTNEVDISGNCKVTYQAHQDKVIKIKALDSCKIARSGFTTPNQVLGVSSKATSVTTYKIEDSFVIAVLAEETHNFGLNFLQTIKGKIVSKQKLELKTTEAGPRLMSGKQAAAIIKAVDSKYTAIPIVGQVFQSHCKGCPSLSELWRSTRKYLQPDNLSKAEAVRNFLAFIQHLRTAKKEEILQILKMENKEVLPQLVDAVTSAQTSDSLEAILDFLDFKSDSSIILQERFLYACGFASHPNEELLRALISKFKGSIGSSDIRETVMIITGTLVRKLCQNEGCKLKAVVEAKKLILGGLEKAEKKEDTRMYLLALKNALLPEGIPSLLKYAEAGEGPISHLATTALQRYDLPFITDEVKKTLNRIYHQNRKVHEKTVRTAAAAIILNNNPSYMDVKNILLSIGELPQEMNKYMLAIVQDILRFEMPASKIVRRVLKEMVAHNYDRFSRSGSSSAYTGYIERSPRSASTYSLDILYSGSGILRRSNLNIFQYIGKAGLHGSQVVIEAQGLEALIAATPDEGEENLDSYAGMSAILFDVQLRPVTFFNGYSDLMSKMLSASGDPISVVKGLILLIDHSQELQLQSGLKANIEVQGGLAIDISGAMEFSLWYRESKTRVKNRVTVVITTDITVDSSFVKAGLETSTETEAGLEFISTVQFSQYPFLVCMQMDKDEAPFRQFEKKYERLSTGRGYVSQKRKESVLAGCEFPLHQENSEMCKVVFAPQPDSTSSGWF
Sequence of human MTP (P07237 18-508 partner): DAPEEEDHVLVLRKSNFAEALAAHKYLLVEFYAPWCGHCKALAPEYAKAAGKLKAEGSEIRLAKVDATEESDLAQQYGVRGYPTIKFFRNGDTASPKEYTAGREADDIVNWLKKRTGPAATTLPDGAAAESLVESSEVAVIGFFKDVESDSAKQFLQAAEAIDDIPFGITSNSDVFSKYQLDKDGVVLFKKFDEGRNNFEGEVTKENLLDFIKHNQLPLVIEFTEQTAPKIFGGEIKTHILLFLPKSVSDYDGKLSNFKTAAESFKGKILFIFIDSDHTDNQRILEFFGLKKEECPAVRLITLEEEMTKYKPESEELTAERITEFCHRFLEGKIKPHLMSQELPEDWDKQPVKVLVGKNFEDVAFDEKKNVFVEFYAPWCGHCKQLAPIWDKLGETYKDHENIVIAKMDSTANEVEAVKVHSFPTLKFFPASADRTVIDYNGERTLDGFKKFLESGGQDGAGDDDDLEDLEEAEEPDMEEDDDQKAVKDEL

`Cc1cccc(C(=O)Nc2ccc(N3CCN(Cc4cccc(C#N)c4)CC3)cc2)c1-c1ccc(C(C)C)cc1` [Example 4, 4′-Isopropyl-6-methyl-biphenyl-2-carboxylic acid [4-[4-(3-cyano-benzyl)-piperazin-1-yl]-phenyl]-amide] yielded an IC50 of 200 pM.
The value for `COc1cccc(C(=O)Nc2ccc(N3CCN(CC(N)=O)CC3)cc2)c1-c1ccc(C(C)C)cc1` [Example 38, 4′-Isopropyl-6-methoxy-biphenyl-2-carboxylic acid [4-(4-carbamoylmethyl-piperazin-1-yl)-phenyl]-amide] was 300 pM.
For the compound `Cc1cccc(C(=O)Nc2ccc(N3CCN(CC(N)=O)CC3)cc2)c1-c1ccc(C(C)C)cc1` [Example 39, 4′-Isopropyl-6-methyl-biphenyl-2-carboxylic acid (4-(4-carbamoylmethyl-piperazin-1-yl)-phenyl]-amide], the IC50 is 300 pM.
In turn, “5-Methyl-4′-trifluoromethyl-biphenyl-2-carboxylic acid [-(4-(1H-pyrrol-2-ylmethyl)-piperazin-1-yl)-phenyl]-amide [Example 64]” returned an IC50 of 260 pM.
The compound `COc1cccc(C(=O)Nc2ccc(N3CCN(Cc4cccc(C#N)c4)CC3)cc2)c1-c1ccc(C(C)C)cc1` [Example 3, 4′-Isopropyl-6-methoxy-biphenyl-2-carboxylic acid [4-[4-(3-cyano-benzyl)-piperazin-1-yl]-phenyl]-amide] registered an IC50 of 200 pM.
In the case of `Cc1ccc(C(=O)Nc2ccc(N3CCN(Cc4cccc(-c5nc(C)no5)c4)CC3)cc2)c(-c2ccc(C(C)C)cc2)c1` [Example 6], the IC50 is 300 pM.
With `Cc1noc(-c2cccc(CN3CCN(c4ccc(NC(=O)c5cccc(C)c5-c5ccc(C(C)C)cc5)cc4)CC3)c2)n1` [Example 61, 4′-Isopropyl-6-methyl-biphenyl-2-carboxylic acid (4-(4-(3-(3-methyl-[1,2,4]oxadiazol-5-yl)-benzyl)-piperazine-1-yl)-phenyl)-amide], the IC50 came to 200 pM.
`Cc1ccc(C(=O)Nc2ccc(N3CCN(Cc4cccc(C#N)c4)CC3)cc2)c(-c2ccc(C(C)C)cc2)c1` [Example 2, 4′-Isopropyl-5-methyl-biphenyl-2-carboxylic acid [4-[4-(3-cyano-benzyl)-piperazin-1-yl]-phenyl]-amide] gave a concentration for half-maximal inhibition (IC50) of 300 pM.
With `NC(=O)CN1CCN(c2ccc(NC(=O)c3ccccc3-c3ccc(C(F)(F)F)cc3)cc2)CC1` [Example 37, 4′-Trifluoromethyl-biphenyl-2-carboxylic acid [4-(4-carbamoylmethyl-piperazin-1-yl)-phenyl]-amide], inhibition was half-maximal at 8000 pM (IC50).
Next, `Cc1ccc(C(=O)Nc2ccc(N3CCN(Cc4ccc[nH]4)CC3)cc2)c(-c2ccc(C(C)C)cc2)c1` [Example 63, 4′-Isopropyl-5-methyl-biphenyl-2-carboxylic acid [4-(4-(1H-pyrrol-2-ylmethyl)-piperazin-1-yl)-phenyl]-amide]: 700 pM.
With `O=C(Nc1ccc(N2CCN(Cc3ccc[nH]3)CC2)cc1)c1ccccc1-c1ccc(C(F)(F)F)cc1` [Example 62, 4′-Trifluoromethyl-biphenyl-2-carboxylic acid [4-(4-(1H-pyrrol-2-ylmethyl)-piperazin-1-yl)-phenyl]-amide], the IC50 worked out at 300 pM.
`Cc1cccc(C(=O)Nc2ccc(N3CCN(Cc4cccc(C#N)c4)CC3)cc2)c1-c1ccc(C(F)(F)F)cc1` [Example 5, 6-Methyl-4′-trifluoromethyl-biphenyl-2-carboxylic acid [4-[4-(3-cyano-benzyl)-piperazin-1-yl]-phenyl]-amide]: the IC50 stood at 200 pM.
